One assay concerns KC. Briefly: Inflammatory chemokine and cytokine analysis in CIA mice, KC. The assay is classed as in vivo, mouse. From the text: Inflammatory Chemokine and Cytokine Analysis: At the termination of the CIA study, mice were sacrificed and blood was harvested via cardiac punch using EDTA as an anticoagulant. […] Levels of various mouse cytokines in plasma were quantified using Bioplex® Suspension Array System according to manufacturer's instruction (BioRad, mTNFa (171-G5023M), mIL-6 (171-G5007M), mKC (171-G5018M), mIFNg (171-G5017M), mIL-17 (Z60-00006Z2), mIL-1β (171-G5002M), mMCP-1 (171-G5019M).

Assay [1] has as its system male NOD mice. Nature of the assay: NOD mouse model, salivary gland secretion (pilocarpine-induced salivation assay). As to conditions: all treatment groups. The assay is classed as in vivo. As for the experimental part:
Non-Obese Diabetic Mouse (NOD) Model of Sjogren's Syndrome. Male Non Obese Diabetic (NOD) mice from the KWS BioTest NOD colony and male BALB/c mice were randomly allocated to experimental groups and allowed to acclimatise for one week prior to the beginning of the study. From six weeks of age, animals were treated according to the administration schedule in Table 5, below. Each group consisted of n=12 animals. The administration volume was 15 ml/kg from 6-12 weeks of age. The administration volume was then decreased to 10 ml/kg from 13-20 weeks of age. The vehicle was distilled water pH 3.0-3.5 for Group 7. The vehicle was 0.5% methylcellulose and 0.25% Tween® 80 for all other groups.
Measurement of salivary gland secretion. Salivary gland secretion was measured every other week from six weeks of age. […] The weight of saliva collected was then measured using digital scales. […]
Salivary Gland Secretion. Salivary gland secretion was measured using the pilocarpine-induced salivation assay. Data are expressed as milligram of saliva per gram bodyweight. Data from this readout are indicative of inflammatory changes in the salivary glands, but significant changes are typically only seen from weeks 18 onwards in NOD mice. […] Data were analysed by two-way ANOVA followed by Dunnett's post-test for multiple comparisons to the vehicle-treated group (FIG. 16).

The subject of assay [2] is male NOD mice. Nature of the assay: NOD mouse model, lachrymal gland histopathology. As to conditions: 20 weeks of age. The assay is classed as in vivo. From the text:
Histopathology. Samples of lachrymal gland and salivary glands from all animals were fixed for Haematoxylin & Eosin histological analysis. Sections were inspected blind by a qualified histopathologist and scored for signs of pathology according to a semi-quantitative scoring system. This system is based on the mean number of inflammatory foci comprising 50 or more mononuclear inflammatory cells per objective field. The ratio of infiltrated to normal glandular tissue was expressed on a five point scale.
Lachrymal Gland Histopathology. Lachrymal glands from Control BALB/c mice (n=12 mice) and vehicle-treated NOD mice (n=9 mice) were examined and scored, in order to validate the model. For each animal, one section from the right lachrymal gland and one section from the left lachrymal gland were prepared. Sections were examined and scored for two criteria:
(i) Focus Score. The mean number of inflammatory foci comprising ≧50 mononuclear inflammatory cells per ×10 objective field was counted. Five such fields were assessed (where possible) to derive this index and these are selected to contain the maximum number of such foci. Where the overall area of the tissue section was less than five fields, the number of ×10 objective fields was recorded and used to determine the focus score. (ii) Area Score. […]

Another assay deals with TNF-a. Briefly: Inflammatory chemokine and cytokine analysis in CIA mice, TNF-a. The format is in vivo, mouse. The procedure: Inflammatory Chemokine and Cytokine Analysis: At the termination of the CIA study, mice were sacrificed and blood was harvested via cardiac punch using EDTA as an anticoagulant. Following centrifugation, serum was diluted 1:4 with a mouse serum diluents kit (BioRad cat#171-305004). Levels of various mouse cytokines in plasma were quantified using Bioplex® Suspension Array System according to manufacturer's instruction (BioRad, mTNFa (171-G5023M), mIL-6 (171-G5007M), mKC (171-G5018M), mIFNg (171-G5017M), mIL-17 (Z60-00006Z2), mIL-1β (171-G5002M), mMCP-1 (171-G5019M).

For another assay, the target named is Btk (Homo sapiens, UniProt Q06187). Briefly: Clinical single dose study, Btk occupancy in enriched B cells (covalent probe ELISA). The format is in vivo. As for the experimental part:
Btk Target Site Occupancy ELISA: An ELISA method for the detection of free uninhibited Btk in mouse, rat, dog, monkey, and human lysates was developed at Celgene Avilomics Research and a validation of this method in human B cell lysate was performed by a CLIA Certified laboratory (Cambridge Biomedical Laboratories, Boston, Mass.) The parameters that were assessed included: accuracy, linearity, dilution, precision (intra and inter-assay), stability, reference range, freeze-thaw cycles, reportable range, specificity, sensitivity, and carryover. […] Standards and samples were transferred to a streptavidin-coated 96-well ELISA plate and mixed while shaking for 1 h at room temperature. […] After wash, goat α-mouse-HRP (1:5000 dilution in PBS+0.05% Tween-20+0.5% BSA) was added and incubated for 1 h at room temperature. The ELISA was developed with addition of tetramethyl benzidine (TMB) followed by Stop Solution and read at OD 450 nm.
Clinical Study: A double blind, placebo-controlled, ascending single dose, randomized study in normal healthy human volunteers was conducted at a single clinical research unit in accordance with Declaration of Helsinki principles. Informed consent statements were obtained from all subjects prior to inclusion in the study. Subjects were admitted to the unit 1 day before dosing and discharged 96 h after dosing.
Isolation of Enriched B Lymphocyte Population from Human Healthy Volunteers: 21 mL of human whole blood was collected from each subject at each time point into BD® Vacutainer® CPT Cell Preparation Tubes containing sodium heparin. […] Isolated cells were harvested into a clean 50 mL conical tube that was pooled by subject. […] Cell suspensions were diluted in 1 mL of red blood cell lysis buffer for 3 minutes at room temperature. […] The lysates were stored frozen at ≦−70° C. until Btk target site occupancy analysis by ELISA.
A general note: In an ELISA, binding on a coated surface is turned into a signal by an enzyme label.

Structures are written as SMILES. Where two headings read alike, the source gives them in different places. Marks after values point to notes of the source that are not given here.

Sequence of Btk (Q06187 whole entry): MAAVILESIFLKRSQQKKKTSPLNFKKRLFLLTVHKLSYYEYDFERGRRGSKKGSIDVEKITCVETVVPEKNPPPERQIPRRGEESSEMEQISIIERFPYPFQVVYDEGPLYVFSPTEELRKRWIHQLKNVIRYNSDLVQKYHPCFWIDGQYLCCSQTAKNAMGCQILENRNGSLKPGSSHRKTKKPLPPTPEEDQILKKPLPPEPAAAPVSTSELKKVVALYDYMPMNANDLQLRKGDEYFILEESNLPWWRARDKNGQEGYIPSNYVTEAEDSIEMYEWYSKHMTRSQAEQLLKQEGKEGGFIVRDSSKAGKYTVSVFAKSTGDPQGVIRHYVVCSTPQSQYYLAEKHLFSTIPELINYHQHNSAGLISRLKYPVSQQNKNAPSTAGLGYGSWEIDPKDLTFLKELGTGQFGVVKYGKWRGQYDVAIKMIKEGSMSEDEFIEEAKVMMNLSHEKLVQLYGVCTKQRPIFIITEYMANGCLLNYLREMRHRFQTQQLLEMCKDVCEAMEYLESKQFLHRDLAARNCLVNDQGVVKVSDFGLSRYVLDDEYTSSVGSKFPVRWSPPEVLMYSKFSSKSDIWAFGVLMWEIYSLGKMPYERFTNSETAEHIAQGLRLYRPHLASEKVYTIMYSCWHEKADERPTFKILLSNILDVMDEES

As to `C=CC(=O)Nc1cccc(Nc2nc(Nc3ccc(OCCOC)cc3)ncc2F)c1` [Compound 1 besylate, N-(3-(5-fluoro-2-(4-(2-methoxyethoxyl)phenylamino)pyrimidin-4-ylamino)phenyl)acrylamide besylate], the KC mean in the assay on KC (3 mg/kg) was 62.0 pg/mL; in the assay on KC (10 mg/kg), 31.1* pg/mL; in the assay on KC (30 mg/lkg), 17.5* pg/mL. The “salivary gland secretion between groups” value in the assay with male NOD mice [1] was “No significant differences”. Besides, in the assay with male NOD mice [2], the “lachrymal gland Area Score (proportion of infiltrated glandular tissue) vs vehicle” value is reported as “did not reduce”. The “lachrymal gland Focus Score (number of inflammatory foci) vs vehicle” value with male NOD mice [2] was “did not reduce”. In addition, the figures for the TNF-a mean with TNF-a (3 mg/kg), in the assay with TNF-a (10 mg/kg) and in the assay with TNF-a (30 mg/lkg) were 160.2 pg/mL, 123.0* pg/mL and 117.0* pg/mL, respectively. For the same compound, the receptor occupancy at 2 mg/kg on Btk (2 mg/kg, 4 hours, read-out: average cohort Btk occupancy (maximal)) is over 97%; at Btk (2.0 mg/kg, within 4 hours, read-out: Btk occupancy, 5 of 6 subjects), over 98%; at Btk (2.0 mg/kg, within 4 hours, read-out: Btk occupancy, 6th subject), 84%. Besides, the “time complete or near-complete Btk occupancy was sustained” value at Btk (2.0 mg/kg, all 6 subjects) was 8 to 24 h. Besides, at Btk (after single oral 2.0 mg/kg), the “average Btk re-synthesis rate” value is 3.0 pg Btk/ug protein/hour. For the same compound, at Btk (within 96 hours), the “free Btk protein levels recovered, % of pre-dose values” is listed as about 75%.
